Measurements taken from ChEMBL document CHEMBL6074695, “Structural Aspects of Mycobacterium tuberculosis DNA Gyrase Targeted by Novel Bacterial Topoisomerase Inhibitors” (ACS Med Chem Lett, 2024).
Converted amounts (≈) assume the structure as drawn.

System: Mycobacterium tuberculosis
Type: functional, organism-based
Conditions: H37Rv, 120 h

| SMILES | MIC (time 5 day) | IC50 |
| --- | --- | --- |
| O=c1ccc2ncc(=O)n3c2n1C[C@H]3CN1CCC(NCc2cc3c(cn2)OCCC3)CC1 [GEPOTIDACIN] | 0.86 µM (≈ 0.386 µg/mL) |  |
| COc1ccc2nccc(CCN3CCC(NCc4cc(F)c(Cl)c(F)c4)CC3)c2n1 |  | 7 nM |
